Results taken from patent US8106086B2, “Indoledione derivative” (MSD K.K., priority 2007, dated 2012).

Legend:
[1] = activity of the optically resolved components of Production Example 1 (test not stated); settings: fractions from optical resolution on CHIRALPAK AD-H
[2] = biological target: T1, intracellular LCE in H2.35 cells originating in mouse liver (Mus musculus, UniProt Q920L5); test: Intracellular LCE activity inhibition test; assay type: cell-based; settings: [14C]-palmitoyl CoA, C18/C16 ratio by radio HPLC
T1 construct: endogenous in cells; host or cells: H2.35 mouse liver cells
T1 sequence (Q920L5 1-267): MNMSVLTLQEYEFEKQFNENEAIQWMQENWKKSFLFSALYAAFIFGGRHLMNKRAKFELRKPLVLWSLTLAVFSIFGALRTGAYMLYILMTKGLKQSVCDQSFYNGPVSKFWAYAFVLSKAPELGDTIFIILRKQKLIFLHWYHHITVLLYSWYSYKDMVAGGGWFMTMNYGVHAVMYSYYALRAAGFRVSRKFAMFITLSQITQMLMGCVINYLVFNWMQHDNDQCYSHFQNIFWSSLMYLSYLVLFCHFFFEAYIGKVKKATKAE
Procedure: Cultured H2.35 cells originating in mouse liver were maintained in DMEM (GIBCO) containing 4% calf serum and 200 nM dexamethasone and cultured at 33° C. in the presence of 5% CO2. About 2.5×10^5 H2.35 cells were pipetted into a 24-well cell culture plate (Corning, 24-Well Cell Culture Cluster) and cultured overnight at 33° C. in the presence of 5% CO2. […] After culturing for 1 hour at 33° C. in the presence of 5% CO2, [^14C]-palmitoyl CoA (2.13 GBq/mmol, manufactured by Perkin Elmer) was added to each well and culture was conducted for additional 4 hours at 33° C. in the presence of 5% CO2. Next, each well was washed with ice-cooled phosphate-buffered physiological saline and 250 μl of 2M sodium hydroxide was added to cease the reaction. Then, the reaction solution in each well was transferred into a glass test tube and incubated at 70° C. for 1 hour. After adding 100 μl of a 5N hydrogen chloride solution, fatty acids were extracted with petroleum ether. Then [^14C]-labeled fatty acids were quantified by radio HPLC and the ratio of the amount of fatty acids having carbon chains consisting of 18 carbon atoms to the amount of those having carbon chains consisting of 16 carbon atoms (C18/C16 ratio) was calculated. The intracellular LCE inhibition activity of the test compound was calculated, based on the C18/C16 ratio of the well containing test compound-free DMSO as a control.

human LCE = biological target: T2, human LCE (Homo sapiens, UniProt Q9H5J4); test: LCE enzyme activity inhibition test; assay type: biochemical; settings: palmitoyl CoA and [14C]-malonyl CoA, 37° C. for 90 minutes
T2 sequence (Q9H5J4 1-265): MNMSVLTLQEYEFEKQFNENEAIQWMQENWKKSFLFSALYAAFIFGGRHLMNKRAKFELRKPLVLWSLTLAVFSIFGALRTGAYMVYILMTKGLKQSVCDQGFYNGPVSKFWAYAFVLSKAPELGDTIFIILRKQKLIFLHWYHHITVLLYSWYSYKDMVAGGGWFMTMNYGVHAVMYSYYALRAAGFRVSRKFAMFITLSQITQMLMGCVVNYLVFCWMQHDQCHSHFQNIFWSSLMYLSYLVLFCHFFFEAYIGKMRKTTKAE
Procedure: The LCE enzyme activity inhibition test was carried out according to a modification of the method of Moon et al., J. Biol. Chem., Vol. 276, pp. 45358 to 45366 (2001). Namely, 1.0 μl of the diluted test compound was added to each well of a 96-well assay plate (Corning, 96-Well Assay Block). Next, 50 μl of a phosphate buffer solution (100 mM potassium phosphate buffer solution, pH 6.5) and 25 μl of a substrate solution (in 100 mM potassium phosphate buffer solution (pH 6.5), 4.0 μM rotenone, 80 μM fatty acid-free bovine serum albumin, 160 μM palmitoyl CoA, 80 μM malonyl CoA, 3.5 μM [^14C]-malonyl CoA (1.92 GBq/mmol, manufactured by Amersham) were added to each well. Further, 25 μl of an enzyme solution (in 100 mM potassium phosphate buffer solution (pH 6.5), 100 μg/ml human LCE) was added thereto. Then, the upper side of the plate was sealed up, and the plate was incubated with gently stirring at 37° C. for 90 minutes. Subsequently, 100 μl of 5 N HCl was added to each well. The reaction was ceased by stirring the assay plate at room temperature for 5 minutes and acyl CoA was hydrolyzed. Subsequently, the enzyme reaction solution in each well was adsorbed by each well of a 96-well GF/C filter plate (Perkin Elmer Unifilter 96GF/C) through which water had been preliminarily passed. After washing each well with water to remove unabsorbed malonyl CoA, the GF/C filter plate was dried at 50° C. for 60 minutes. Next, 30 μl of a scintilator (Perkin Elmer, Microschinti 0) was added to each well and the upper side of the plate was sealed up. The radioactivity of the thus fixed [^14C] was measured with a microplate scintillation counter (Perkin Elmer, Topcount) and the obtained value was referred to as the enzyme activity. The human LCE enzyme inhibition activity of the test compound was calculated, based on the radioactivity of the well containing test compound-free DMSO as a control.

Structure (SMILES)	IC50 [2]	IC50 (human LCE)	identified as being active [1]
Cc1[nH]n(-c2ccccc2)c(=O)c1C1(C(F)(F)F)C(=O)N(c2ccccc2)C2=C1C(=O)CC(C)(C)C2 (centres unmarked) [3-(2,5-dihydro-3-methyl-5-oxo-1-phenyl-1H-pyrazol-4-yl)-3,5,6,7-tetrahydro-6,6-dimethyl-1-phenyl-3-trifluoromethyl-1H-indole-2,4-dione]			active
Cc1[nH]n(-c2ccc(C(F)(F)F)cc2)c(=O)c1C1(C(F)(F)F)C(=O)N(c2ccccc2)C2=C1C(=O)CC(C)(C)C2 (centres unmarked) [Production Example 29, 3-[2,5-dihydro-3-methyl-5-oxo-1-(4-trifluoromethylphenyl)-1H-pyrazol-4-yl]-3,5,6,7-tetrahydro-6,6-dimethyl-1-phenyl-3-trifluoromethyl-1H-indole-2,4-dione]	1.2 nM	23 nM	
Cc1[nH]n(-c2ccc(OC(F)(F)F)cc2)c(=O)c1C1(C(F)(F)F)C(=O)N(c2ccccc2)C2=C1C(=O)CC(C)(C)C2 (centres unmarked) [Production Example 36, 3-[2,5-dihydro-3-methyl-5-oxo-1-(4-trifluoromethoxyphenyl)-1H-pyrazol-4-yl]-3,5,6,7-tetrahydro-6,6-dimethyl-1-phenyl-3-trifluoromethyl-1H-indole-2,4-dione]	0.6 nM		
Cc1[nH]n(-c2ccc(OC(C)C)cc2)c(=O)c1C1(C(F)(F)F)C(=O)N(c2ccccc2)C2=C1C(=O)CC(C)(C)C2 (centres unmarked) [Production Example 40, 3-[2,5-dihydro-1-(4-isopropoxyphenyl)-3-methyl-5-oxo-1H-pyrazol-4-yl]-3,5,6,7-tetrahydro-6,6-dimethyl-1-phenyl-3-trifluoromethyl-1H-indole-2,4-dione]	38 nM	30 nM	
Cc1[nH]n(-c2ccc(S(C)(=O)=O)cc2)c(=O)c1C1(C(F)(F)F)C(=O)N(c2ccccc2)C2=C1C(=O)CC(C)(C)C2 (centres unmarked) [Production Example 44, 3-[2,5-dihydro-3-methyl-(4-methylsulfonylphenyl)-5-oxo-1H-pyrazol-4-yl]-3,5,6,7-tetrahydro-6,6-dimethyl-1-phenyl-3-trifluoromethyl-1H-indole-2,4-dione]	7 nM	8.9 nM	

Further compounds by falling IC50 [2], results first:

IC50 [2]	IC50 (human LCE)	Structure (SMILES)	identified as being active [1]
25 nM	22 nM	Cc1[nH]n(-c2ccc(-c3ccccc3)cc2)c(=O)c1C1(C(F)(F)F)C(=O)N(c2ccccc2)C2=C1C(=O)CC(C)(C)C2 (centres unmarked) [Production Example 42, 3-[2,5-dihydro-3-methyl-5-oxo-1-(biphenyl-4-yl)-1H-pyrazol-4-yl]-3,5,6,7-tetrahydro-6,6-dimethyl-1-phenyl-3-trifluoromethyl-1H-indole-2,4-dione]	
5.4 nM		Cc1[nH]n(-c2ccc(C#N)cc2)c(=O)c1C1(C(F)(F)F)C(=O)N(c2ccccc2)C2=C1C(=O)CC(C)(C)C2 (centres unmarked) [Production Example 31, 3-[1-(4-cyanophenyl)-2,5-dihydro-3-methyl-5-oxo-1H-pyrazol-4-yl]-3,5,6,7-tetrahydro-6,6-dimethyl-1-phenyl-3-trifluoromethyl-1H-indole-2,4-dione]	
4.2 nM	15 nM	Cc1[nH]n(-c2ccc(C(C)(C)C)cc2)c(=O)c1C1(C(F)(F)F)C(=O)N(c2ccccc2)C2=C1C(=O)CC(C)(C)C2 (centres unmarked) [Production Example 35, 3-[1-(4-tert-butylphenyl)-2,5-dihydro-3-methyl-5-oxo-1H-pyrazol-4-yl]-3,5,6,7-tetrahydro-6,6-dimethyl-1-phenyl-3-trifluoromethyl-1H-indole-2,4-dione]	
3.1 nM		COc1ccc(-n2[nH]c(C)c(C3(C(F)(F)F)C(=O)N(c4ccccc4)C4=C3C(=O)CC(C)(C)C4)c2=O)cc1 (centres unmarked) [Production Example 26, 3-[2,5-dihydro-1-(4-methoxyphenyl)-3-methyl-5-oxo-1H-pyrazol-4-yl]-3,5,6,7-tetrahydro-6,6-dimethyl-1-phenyl-3-trifluoromethyl-1H-indole-2,4-dione]	
